One experiment addresses T1, IKKa/CHUK (Homo sapiens, UniProt O15111).
T1 sequence (O15111 1-745): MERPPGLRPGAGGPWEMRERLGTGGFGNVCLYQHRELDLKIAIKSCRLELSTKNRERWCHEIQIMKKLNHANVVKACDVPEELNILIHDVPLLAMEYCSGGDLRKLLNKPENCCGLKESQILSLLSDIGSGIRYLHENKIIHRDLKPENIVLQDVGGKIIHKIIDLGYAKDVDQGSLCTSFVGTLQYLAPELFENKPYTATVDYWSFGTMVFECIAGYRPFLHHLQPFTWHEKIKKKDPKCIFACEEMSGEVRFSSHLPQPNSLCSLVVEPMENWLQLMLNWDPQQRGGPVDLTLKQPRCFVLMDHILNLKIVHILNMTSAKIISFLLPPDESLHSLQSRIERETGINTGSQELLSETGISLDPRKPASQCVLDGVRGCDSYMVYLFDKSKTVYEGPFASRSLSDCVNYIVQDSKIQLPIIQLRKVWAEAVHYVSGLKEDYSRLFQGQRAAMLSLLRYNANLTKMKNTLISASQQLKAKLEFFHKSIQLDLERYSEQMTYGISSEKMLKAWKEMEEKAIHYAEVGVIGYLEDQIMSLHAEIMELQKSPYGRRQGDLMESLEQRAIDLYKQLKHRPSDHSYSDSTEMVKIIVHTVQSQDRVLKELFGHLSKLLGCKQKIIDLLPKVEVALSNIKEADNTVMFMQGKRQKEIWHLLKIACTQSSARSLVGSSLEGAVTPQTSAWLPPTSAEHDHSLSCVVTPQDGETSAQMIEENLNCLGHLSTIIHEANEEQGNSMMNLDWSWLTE
In words: biochemical. Conditions: read-out: % enzyme activity, 1 μM; Run 1, Run 2.

For another experiment, the target named is PDGFRa (Homo sapiens, UniProt P16234). Briefly: biochemical. Conditions: read-out: % enzyme activity, 1 μM; Run 1, Run 2.
Chain of PDGFRa (P16234 24-1089): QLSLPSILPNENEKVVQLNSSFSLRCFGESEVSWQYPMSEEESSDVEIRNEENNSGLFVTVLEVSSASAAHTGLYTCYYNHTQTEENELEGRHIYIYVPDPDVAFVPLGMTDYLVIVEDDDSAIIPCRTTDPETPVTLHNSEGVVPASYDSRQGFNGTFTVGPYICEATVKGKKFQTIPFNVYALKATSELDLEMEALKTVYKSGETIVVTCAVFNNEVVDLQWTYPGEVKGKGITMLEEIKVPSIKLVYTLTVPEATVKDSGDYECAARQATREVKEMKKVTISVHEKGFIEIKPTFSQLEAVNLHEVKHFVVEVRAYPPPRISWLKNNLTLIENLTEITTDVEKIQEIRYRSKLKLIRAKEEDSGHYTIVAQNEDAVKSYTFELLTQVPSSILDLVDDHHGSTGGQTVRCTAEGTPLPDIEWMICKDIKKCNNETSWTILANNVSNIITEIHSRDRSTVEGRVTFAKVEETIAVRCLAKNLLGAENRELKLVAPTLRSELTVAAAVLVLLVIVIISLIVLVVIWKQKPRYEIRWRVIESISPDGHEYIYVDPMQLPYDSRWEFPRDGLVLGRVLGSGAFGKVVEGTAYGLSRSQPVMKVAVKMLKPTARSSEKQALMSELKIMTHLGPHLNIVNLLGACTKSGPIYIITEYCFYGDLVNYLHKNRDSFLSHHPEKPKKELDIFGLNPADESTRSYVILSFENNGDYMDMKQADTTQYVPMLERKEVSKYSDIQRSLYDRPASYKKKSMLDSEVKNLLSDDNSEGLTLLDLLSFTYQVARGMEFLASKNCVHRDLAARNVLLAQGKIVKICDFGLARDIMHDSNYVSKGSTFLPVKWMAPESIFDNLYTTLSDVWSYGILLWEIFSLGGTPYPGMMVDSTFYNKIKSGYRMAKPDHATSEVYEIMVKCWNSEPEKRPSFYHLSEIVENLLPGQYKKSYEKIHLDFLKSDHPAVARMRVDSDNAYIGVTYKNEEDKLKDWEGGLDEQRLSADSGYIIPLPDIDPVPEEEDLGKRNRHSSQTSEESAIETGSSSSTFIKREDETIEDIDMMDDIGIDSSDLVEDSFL
For the next experiment, the target named is T2, MEKK6 (Homo sapiens, UniProt O95382).
T2 sequence (O95382 1-1288): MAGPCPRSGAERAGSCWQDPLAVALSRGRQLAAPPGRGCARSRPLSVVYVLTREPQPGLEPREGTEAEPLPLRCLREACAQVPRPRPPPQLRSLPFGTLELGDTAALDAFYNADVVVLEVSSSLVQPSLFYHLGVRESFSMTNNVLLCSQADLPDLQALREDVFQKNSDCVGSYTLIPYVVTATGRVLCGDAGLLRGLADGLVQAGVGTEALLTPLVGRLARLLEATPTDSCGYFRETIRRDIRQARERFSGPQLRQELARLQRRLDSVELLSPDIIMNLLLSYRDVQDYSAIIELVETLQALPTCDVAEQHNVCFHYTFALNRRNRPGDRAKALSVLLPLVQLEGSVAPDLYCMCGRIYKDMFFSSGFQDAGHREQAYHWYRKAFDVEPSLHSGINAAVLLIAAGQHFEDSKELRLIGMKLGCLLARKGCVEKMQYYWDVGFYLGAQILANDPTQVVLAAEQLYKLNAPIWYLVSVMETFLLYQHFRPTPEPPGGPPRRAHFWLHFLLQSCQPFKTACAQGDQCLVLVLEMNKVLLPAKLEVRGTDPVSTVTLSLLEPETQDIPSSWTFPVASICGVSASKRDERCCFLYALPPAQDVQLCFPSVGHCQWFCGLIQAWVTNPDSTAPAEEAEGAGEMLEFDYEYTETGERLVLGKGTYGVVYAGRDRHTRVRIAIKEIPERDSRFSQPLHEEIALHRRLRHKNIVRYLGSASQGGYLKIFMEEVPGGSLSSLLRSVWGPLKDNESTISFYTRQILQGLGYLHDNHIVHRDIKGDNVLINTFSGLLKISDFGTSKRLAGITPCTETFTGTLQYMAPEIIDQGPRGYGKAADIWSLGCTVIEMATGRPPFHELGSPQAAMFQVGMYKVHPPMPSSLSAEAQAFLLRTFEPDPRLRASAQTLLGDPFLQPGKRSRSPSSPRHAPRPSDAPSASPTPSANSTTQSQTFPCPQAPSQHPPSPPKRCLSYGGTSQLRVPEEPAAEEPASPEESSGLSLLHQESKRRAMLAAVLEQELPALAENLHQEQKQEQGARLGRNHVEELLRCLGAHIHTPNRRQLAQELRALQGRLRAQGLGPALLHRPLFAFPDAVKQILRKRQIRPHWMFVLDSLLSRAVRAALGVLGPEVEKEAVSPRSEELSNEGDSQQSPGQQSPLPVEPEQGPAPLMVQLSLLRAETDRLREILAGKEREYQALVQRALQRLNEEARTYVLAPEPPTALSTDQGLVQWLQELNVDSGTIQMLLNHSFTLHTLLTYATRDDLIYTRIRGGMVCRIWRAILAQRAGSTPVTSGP
In words: biochemical. As to conditions: read-out: % enzyme activity, 1 μM; Run 1, Run 2.

The target in another experiment is T3, MYLK3 (Homo sapiens, UniProt Q32MK0).
T3 sequence (Q32MK0 1-819): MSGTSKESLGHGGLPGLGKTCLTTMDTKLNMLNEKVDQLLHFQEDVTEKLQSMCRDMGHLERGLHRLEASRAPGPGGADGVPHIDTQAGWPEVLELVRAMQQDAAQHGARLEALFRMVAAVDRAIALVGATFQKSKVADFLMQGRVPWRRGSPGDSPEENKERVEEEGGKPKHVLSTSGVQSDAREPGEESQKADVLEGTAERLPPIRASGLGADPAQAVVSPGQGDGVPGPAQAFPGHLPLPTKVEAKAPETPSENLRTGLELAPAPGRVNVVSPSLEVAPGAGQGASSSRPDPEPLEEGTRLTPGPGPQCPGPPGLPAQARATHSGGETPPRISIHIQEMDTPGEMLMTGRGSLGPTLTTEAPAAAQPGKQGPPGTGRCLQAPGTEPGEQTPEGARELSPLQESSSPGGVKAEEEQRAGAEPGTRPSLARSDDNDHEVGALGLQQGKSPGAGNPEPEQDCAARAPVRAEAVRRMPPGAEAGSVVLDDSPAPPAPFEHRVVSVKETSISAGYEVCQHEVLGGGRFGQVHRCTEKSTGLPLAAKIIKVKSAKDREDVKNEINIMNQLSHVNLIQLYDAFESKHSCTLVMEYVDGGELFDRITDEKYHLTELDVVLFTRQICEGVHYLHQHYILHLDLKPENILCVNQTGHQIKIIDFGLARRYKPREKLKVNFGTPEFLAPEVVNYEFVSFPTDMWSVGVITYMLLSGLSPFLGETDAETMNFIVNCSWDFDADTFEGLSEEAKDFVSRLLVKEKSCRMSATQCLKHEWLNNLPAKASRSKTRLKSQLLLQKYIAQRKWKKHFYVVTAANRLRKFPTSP
As to conditions: 1 μM; Run 1, Run 2.

A further experiment deals with TTBK2 (Homo sapiens, UniProt Q6IQ55). Conditions: 1 μM; Run 1, Run 2.
Chain of TTBK2 (Q6IQ55 whole entry): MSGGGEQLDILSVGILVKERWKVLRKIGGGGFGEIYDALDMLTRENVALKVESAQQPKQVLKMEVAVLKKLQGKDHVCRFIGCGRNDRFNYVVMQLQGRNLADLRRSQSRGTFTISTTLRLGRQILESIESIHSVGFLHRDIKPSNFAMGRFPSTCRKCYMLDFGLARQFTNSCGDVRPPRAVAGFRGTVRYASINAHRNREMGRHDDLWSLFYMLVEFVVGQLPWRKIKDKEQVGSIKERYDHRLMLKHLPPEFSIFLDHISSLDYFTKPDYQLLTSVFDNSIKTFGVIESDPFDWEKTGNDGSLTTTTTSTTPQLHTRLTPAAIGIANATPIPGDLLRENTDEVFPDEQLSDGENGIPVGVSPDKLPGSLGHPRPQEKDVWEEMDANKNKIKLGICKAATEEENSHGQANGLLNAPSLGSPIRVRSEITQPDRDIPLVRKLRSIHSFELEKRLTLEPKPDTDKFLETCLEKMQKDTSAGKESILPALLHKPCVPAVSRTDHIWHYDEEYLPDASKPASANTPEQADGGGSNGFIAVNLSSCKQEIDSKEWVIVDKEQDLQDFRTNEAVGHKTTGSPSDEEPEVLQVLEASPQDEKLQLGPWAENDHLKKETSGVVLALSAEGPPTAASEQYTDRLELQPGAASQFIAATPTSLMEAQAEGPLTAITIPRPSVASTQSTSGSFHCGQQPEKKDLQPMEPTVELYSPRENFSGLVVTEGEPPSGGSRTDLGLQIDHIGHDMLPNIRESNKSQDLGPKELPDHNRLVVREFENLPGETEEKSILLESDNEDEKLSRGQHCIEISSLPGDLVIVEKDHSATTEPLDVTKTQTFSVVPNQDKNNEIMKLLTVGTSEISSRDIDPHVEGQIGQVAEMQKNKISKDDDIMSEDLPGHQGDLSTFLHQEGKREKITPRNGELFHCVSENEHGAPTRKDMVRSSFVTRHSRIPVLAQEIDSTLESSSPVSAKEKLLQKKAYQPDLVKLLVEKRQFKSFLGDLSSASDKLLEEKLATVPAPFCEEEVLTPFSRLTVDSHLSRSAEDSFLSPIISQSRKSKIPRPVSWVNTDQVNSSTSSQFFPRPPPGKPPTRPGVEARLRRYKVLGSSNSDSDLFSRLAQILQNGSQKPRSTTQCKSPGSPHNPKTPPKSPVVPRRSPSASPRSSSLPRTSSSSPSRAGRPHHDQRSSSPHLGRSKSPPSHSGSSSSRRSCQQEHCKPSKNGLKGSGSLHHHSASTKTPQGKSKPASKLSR

Each structure is given as a SMILES string.

Regarding `COc1cc(-c2cncc(-c3ccc(N4CCN(C)CC4)cc3)c2C)cc(F)c1C(N)=O` [Compound 26a, 2-Fluoro-6-methoxy-4-(4-methyl-5-(4-(4-methylpiperazin-1-yl)phenyl)pyridin-3-yl)benzamide], the remaining activity at 1 µM at IKKa/CHUK was found to be 83.3%; on PDGFRa, 82.9%; at MEKK6 it was 98.3%. Besides, the CYP inhibition at CYP2D6 was above 50 µM. The “% enzyme activity” value was determined as 98.90% at MYLK3 and 94.62% on TTBK2.
For `COc1cc(-c2cncc(-c3ccc(N4C[C@@H](C)N(C)[C@@H](C)C4)cc3)c2C)cc(F)c1C(N)=O` [Compound 26c, 2-Fluoro-6-methoxy-4-(4-methyl-5-(4-((3R,5S)-3,4,5-trimethylpiperazin-1-yl)phenyl)pyridin-3-yl)benzamide], the remaining activity at 1 µM at IKKa/CHUK came to 87.4%; at PDGFRa it was 81.9%; on MEKK6, 95.9%. This molecule had a CYP inhibition at CYP2D6 above 50 µM. For the same molecule, the “% enzyme activity” value at MYLK3 was 99.34%; on TTBK2 it was 96.48%.

(Values after PMC8213057, “Targeting ALK2: An Open Science Approach to Developing Therapeutics for the Treatment of Diffuse Intrinsic Pontine Glioma” (Journal of Medicinal Chemistry, 2020).)
